Results published in US20160095843A1, “PYRAZOLOPYRROLIDINE DERIVATIVES AND THEIR USE IN THE TREATMENT OF DISEASE” (NOVARTIS AG, priority 2013, published 2016).

Experiments:
K-562 cells = assay: Cell growth inhibition assay (CellTiter-Glo), K-562; type: cell-based, human; details: for GI50: Homo sapiens, K562
Method: (§1) Cell Growth Inhibition Assay
(§2) The human leukemia cell lines MV-4-11, THP-1 and K-562 were employed to characterize the effect of BET inhibitors on cellular proliferation and viability. Cells were obtained from the American Type Culture Collection (ATCC) and cultured at 37° C. in a humidified 5% CO2 incubator in the following media: MV-4-11: DMEM high glucose (Animed #1-26F01-I), 10% FCS (Animed #2-01F26-I), 4 mM L-Glutamine (Animed #5-10K50), 1 mM Sodium Pyruvate (Animed # G03625P), 1× Penicillin-Streptomycin (Animed # F12478P); K-562: Iscove's MEM (Animed #1-28F16-I), 10% FCS (Animed #2-01F26-I), 4 mM L-Glutamine (Animed #5-10K50), 1× Penicillin-Streptomycin (Animed # F12478P); THP-1: RPMI-1640 (Animed #1-41F01-I), 10% FCS (Animed #2-01F26-I), 2 mM L-Glutamine (Animed #5-10K50), 10 mM HEPES (Animed #5-31F100), 1 mM Sodium Pyruvate (Animed # G03625P), 1× Penicillin-Streptomycin (Animed # F12478P). The AML lines MV-4-11 and THP-1 are very sensitive to BET inhibitors and show massive cell death upon BET inhibition (Zuber et al., Nature, 478 (2011), 524-8). Compound-mediated suppression of cell proliferation/viability was assessed by quantification of cellular ATP levels using the CellTiter-Glo (CTG) reagent (Promega). Briefly, cells were seeded in 20 μl fresh medium into 384-well plates, followed by addition of 5 μL medium containing compound dilutions at 5-fold their final intended concentration. Dose-response effects were assessed by 3-fold serial dilutions of the test compound, starting at 10 μM. Following incubation of the cells for 4 days at 37° C. and 5% CO2, the effect of inhibitors on cell viability was quantified following addition of 20 μl CTG and luminescence quantification (integration time: 100 ms) as per vendor manual, using a correspondingly equipped Tecan M200 multi-mode platereader (TECAN, Switzerland). For data analysis, the assay background value determined in wells containing medium, but no cells, was subtracted from all data points. To enable differentiation of cytotoxic from cytostatic compounds, the number of viable cells is assessed relative to that observed at the time of compound addition using a separate cell plate (day 0). The effect of a particular test compound concentration on cell proliferation/viability is expressed as percentage of the background- and day 0-corrected luminescence reading obtained for cells treated with vehicle only (DMSO, 0.1% final concentration), which is set as 100%, whereas that luminescence reading for wells containing medium is set as −100%. Compound concentrations leading to half-maximal (1050) and total growth inhibition (TGI) were determined using standard four parameter curve fitting.

THP-1 cells = assay: Cell growth inhibition assay (CellTiter-Glo), THP-1; type: cell-based; details: Homo sapiens
Method: as §1, §2

MV-4-11 cells = assay: Cell growth inhibition assay (CellTiter-Glo), MV-4-11; type: cell-based; details: Homo sapiens, MV4-11
Method: as §1, §2

Compound	GI50 (K-562 cells)	GI50 (THP-1 cells)	GI50 (MV-4-11 cells)	IC (TGI) (K-562 cells)
Cc1cc(N2C(=O)c3n[nH]cc3C2c2ccc(Cl)cc2)cn(C)c1=O (centres unmarked) [Example 26, 4-(4-chlorophenyl)-5-(1,5-dimethyl-6-oxo-1,6-dihydropyridin-3-yl)-4,5-dihydropyrrolo[3,4-c]pyrazol-6(2H)-one]	1.5 µM	0.297 µM	0.204 µM	
Cc1[nH]nc2c1C(c1ccc(Cl)cc1)N(c1cc(C)c(=O)n(C)c1)C2=O (centres unmarked) [Example 27, 4-(4-chlorophenyl)-5-(1,5-dimethyl-6-oxo-1,6-dihydropyridin-3-yl)-3-methyl-4,5-dihydropyrrolo[3,4-c]pyrazol-6(2H)-one]	0.463 µM	0.12 µM	0.0559 µM	
Cc1cc(N2C(=O)c3c(cnn3C3CC3)C2c2ccc(Cl)cc2)cn(C)c1=O (centres unmarked) [Example 34, 4-(4-chlorophenyl)-1-cyclopropyl-5-(1,5-dimethyl-6-oxo-1,6-dihydropyridin-3-yl)-4,5-dihydropyrrolo[3,4-c]pyrazol-6(1H)-one]	0.601 µM	0.162 µM	0.0828 µM	
Cn1cc(N2C(=O)c3c(cnn3C3CC3)C2c2ccc(Cl)cc2)cc(Cl)c1=O (centres unmarked) [Example 35, 5-(5-chloro-1-methyl-6-oxo-1,6-dihydropyridin-3-yl)-4-(4-chlorophenyl)-1-cyclopropyl-4,5-dihydropyrrolo[3,4-c]pyrazol-6(1H)-one]	0.905 µM	0.239 µM	0.105 µM	
Cc1cc(N2C(=O)c3c(cnn3C(C)C)C2c2ccc(Cl)cc2)cn(C)c1=O (centres unmarked) [Example 36, 4-(4-chlorophenyl)-5-(1,5-dimethyl-6-oxo-1,6-dihydropyridin-3-yl)-1-isopropyl-4,5-dihydropyrrolo-[3,4-c]pyrazol-6(1H)-one]	0.43 µM	0.103 µM	0.0534 µM	
Cn1cc(N2C(=O)c3c(c(C(F)(F)F)nn3C3CC3)C2c2ccc(Cl)cc2)cc(Cl)c1=O (centres unmarked) [Example 44, 5-(5-chloro-1-methyl-6-oxo-1,6-dihydropyridin-3-yl)-4-(4-chlorophenyl)-1-cyclopropyl-3-(trifluoromethyl)-4,5-dihydropyrrolo[3,4-c]pyrazol-6(1H)-one]	0.658 µM	0.308 µM	0.217 µM	
Cc1cc(N2C(=O)c3c(c(C(F)(F)F)nn3C3CC3)C2c2ccc(Cl)cc2)cn(C)c1=O (centres unmarked) [Example 45, 4-(4-chlorophenyl)-1-cyclopropyl-5-(1,5-dimethyl-6-oxo-1,6-dihydropyridin-3-yl)-3-(trifluoromethyl)-4,5-dihydropyrrolo[3,4-c]pyrazol-6(1H)-one]	0.994 µM	0.357 µM	0.251 µM	
COc1ncc(-n2nc3c(c2C(C)C)C(c2ccc(Cl)cc2)N(c2cc(C)c4onc(C)c4c2)C3=O)c(OC)n1 (centres unmarked) [Example 46, 4-(4-chlorophenyl)-2-(2,4-dimethoxypyrimidin-5-yl)-5-(3,7-dimethylbenzo[d]-isoxazol-5-yl)-3-isopropyl-4,5-dihydropyrrolo-[3,4-c]pyrazol-6(2H)-one]	0.37 µM	0.177 µM	0.115 µM	>10 µM
COc1ncc(-n2nc3c(c2C(F)(F)F)C(c2ccc(Cl)cc2)N(c2cc(Cl)c(=O)n(C)c2)C3=O)c(OC)n1 (centres unmarked) [Example 47, 5-(5-chloro-1-methyl-6-oxo-1,6-dihydropyridin-3-yl)-4-(4-chlorophenyl)-2-(2,4-dimethoxypyrimidin-5-yl)-3-(trifluoromethyl)-4,5-dihydropyrrolo[3,4-c]pyrazol-6(2H)-one]	0.709 µM	0.414 µM	0.113 µM	

Continued, in another order:

GI50 (K-562 cells)	GI50 (THP-1 cells)	GI50 (MV-4-11 cells)	Compound	IC (TGI) (K-562 cells)
0.12 µM	0.029 µM	0.0241 µM	Cc1nn(C2CC2)c2c1[C@@H](c1ccc(Cl)cc1)N(c1cc(C)c(=O)n(C)c1)C2=O [Example 49, (R)-4-(4-chlorophenyl)-1-cyclopropyl-5-(1,5-dimethyl-6-oxo-1,6-dihydropyridin-3-yl)-3-methyl-4,5-dihydropyrrolo-[3,4-c]pyrazol-6(1H)-one]	
0.318 µM	0.0725 µM	0.0519 µM	Cc1nn(C2CC2)c2c1[C@@H](c1ccc(Cl)cc1)N(c1cc(Cl)c(=O)n(C)c1)C2=O [Example 51, (R)-5-(5-chloro-1-methyl-6-oxo-1,6-dihydropyridin-3-yl)-4-(4-chlorophenyl)-1-cyclopropyl-3-methyl-4,5-dihydropyrrolo-[3,4-c]pyrazol-6(1H)-one]	
0.953 µM	0.374 µM	0.249 µM	COc1ncc(-n2nc(C)c3c2C(=O)N(c2cc(Cl)c(=O)n(C)c2)C3c2ccc(Cl)cc2)c(OC)n1 (centres unmarked) [Example 53, 5-(5-chloro-1-methyl-6-oxo-1,6-dihydropyridin-3-yl)-4-(4-chlorophenyl)-1-(2,4-dimethoxypyrimidin-5-yl)-3-methyl-4,5-dihydropyrrolo[3,4-c]pyrazol-6(1H)-one]	
1.53 µM	0.637 µM	0.458 µM	COc1ncc(-n2nc3c(c2C(C)C)C(c2ccc(Cl)cc2)N(c2ccc4onc(C)c4c2)C3=O)c(OC)n1 (centres unmarked) [Example 54, 4-(4-chlorophenyl)-2-(2,4-dimethoxypyrimidin-5-yl)-3-isopropyl-5-(3-methylbenzo-[d]isoxazol-5-yl)-4,5-dihydropyrrolo[3,4-c]pyrazol-6(2H)-one]	
0.4 µM	0.231 µM	0.0891 µM	COc1ncc(-n2nc3c(c2C)C(c2ccc(Cl)cc2)N(c2cc(Cl)c(=O)n(C)c2)C3=O)c(OC)n1 (centres unmarked) [Example 55, 5-(5-chloro-1-methyl-6-oxo-1,6-dihydropyridin-3-yl)-4-(4-chlorophenyl)-2-(2,4-dimethoxypyrimidin-5-yl)-3-methyl-4,5-dihydropyrrolo[3,4-c]pyrazol-6(2H)-one]	
0.265 µM	0.0702 µM	0.0574 µM	COc1ncc(-n2nc3c(c2C)C(c2ccc(Cl)cc2)N(c2cc(C)c(=O)n(C)c2)C3=O)c(OC)n1 (centres unmarked) [Example 56, 4-(4-chlorophenyl)-2-(2,4-dimethoxypyrimidin-5-yl)-5-(1,5-dimethyl-6-oxo-1,6-dihydropyridin-3-yl)-3-methyl-4,5-dihydropyrrolo[3,4-c]pyrazol-6(2H)-one]	
0.48 µM	0.117 µM	0.0695 µM	Cc1nn(C)c2c1C(c1ccc(Cl)cc1)N(c1cc(C)c(=O)n(C)c1)C2=O (centres unmarked) [Example 57, 4-(4-chlorophenyl)-5-(1,5-dimethyl-6-oxo-1,6-dihydropyridin-3-yl)-1,3-dimethyl-4,5-dihydropyrrolo-[3,4-c]pyrazol-6(1H)-one]	
1.14 µM	0.189 µM	0.0944 µM	Cc1nn(C)c2c1C(c1ccc(Cl)cc1)N(c1cc(Cl)c(=O)n(C)c1)C2=O (centres unmarked) [Example 58, 5-(5-chloro-1-methyl-6-oxo-1,6-dihydropyridin-3-yl)-4-(4-chlorophenyl)-1,3-dimethyl-4,5-dihydropyrrolo[3,4-c]pyrazol-6(1H)-one]	
1.25 µM	0.317 µM	0.22 µM	COc1nccc(-n2nc(C)c3c2C(=O)N(c2cc(C)c(=O)n(C)c2)C3c2ccc(Cl)cc2)n1 (centres unmarked) [Example 59, 4-(4-chlorophenyl)-5-(1,5-dimethyl-6-oxo-1,6-dihydropyridin-3-yl)-1-(2-methoxypyrimidin-4-yl)-3-methyl-4,5-dihydropyrrolo[3,4-c]pyrazol-6(1H)-one]	
0.456 µM	0.166 µM	0.0869 µM	CCc1nn(-c2cnc(OC)nc2OC)c2c1C(c1ccc(Cl)cc1)N(c1cc(C)c(=O)n(C)c1)C2=O (centres unmarked) [Example 60, 4-(4-chlorophenyl)-1-(2,4-dimethoxypyrimidin-5-yl)-5-(1,5-dimethyl-6-oxo-1,6-dihydropyridin-3-yl)-3-ethyl-4,5-dihydropyrrolo[3,4-c]pyrazol-6(1H)-one]	
0.316 µM	0.0977 µM	0.0584 µM	COc1ncc(-n2nc3c(c2C(C)C)[C@@H](c2ccc(Cl)cc2)N(c2cc(C)c4onc(C)c4c2)C3=O)c(OC)n1 [Example 62, (R)-4-(4-chlorophenyl)-2-(2,4-dimethoxypyrimidin-5-yl)-5-(3,7-dimethylbenzo[d]-isoxazol-5-yl)-3-isopropyl-4,5-dihydropyrrolo[3,4-c]pyrazol-6(2H)-one]	>10 µM
